Test results published in patent US20220073554A1, “LINCOSAMIDE ANTIBIOTICS AND USES THEREOF” (President and Fellows of Harvard College, priority 2017, published 2022).
Values after ≈ are worked out from the molar mass of the structure shown. Read-outs that look alike come from different tables or passages of the source.

Assays:
Format in all cases: cell-based
E. coli ATCC 25922 = experiment: MIC against E. coli ATCC 25922; conditions: Escherichia coli, ATCC25922
K. pneumoniae ATCC 10031 = experiment: MIC against K. pneumoniae ATCC 10031; conditions: Klebsiella pneumoniae, ATCC10031
S. aureus ATCC 29213 = experiment: MIC against S. aureus ATCC 29213; conditions: Staphylococcus aureus
[1] = test system: S. aureus MP-513 clinical cErm; experiment: MIC against S. aureus MP-513 clinical cErm; conditions: Staphylococcus aureus
P. aeruginosa ATCC 27853 = experiment: MIC against P. aeruginosa ATCC 27853; conditions: Pseudomonas aeruginosa, ATCC27853
E. coli MP-9 ΔTolC = experiment: MIC against E. coli MP-9 ΔTolC; conditions: Escherichia coli
S. aureus BAA 977 iErmA = experiment: MIC against S. aureus BAA 977 iErmA; conditions: Staphylococcus aureus, BAA977
[2] = test system: S. pyogenes MMX 946 Macrolide-Resistant; experiment: MIC against S. pyogenes MMX 946 Macrolide-Resistant; conditions: Streptococcus pyogenes
S. pneumoniae ATCC 49619 = experiment: MIC against S. pneumoniae ATCC 49619; conditions: Streptococcus pneumoniae, ATCC49619; S. pneumoniae ATCC 49619; read-out: MIC
S. pyogenes ATCC 19615 = experiment: MIC against S. pyogenes ATCC 19615; conditions: Streptococcus pyogenes, ATCC19615
[3] = test system: S. pneumoniae MMX 3031 cMefA; experiment: MIC against S. pneumoniae MMX 3031 cMefA; conditions: Streptococcus pneumoniae, MMX3031CMEFA
[4] = test system: P. aeruginosa MMX Mex parent strain; experiment: MIC against P. aeruginosa MMX Mex parent strain; conditions: Pseudomonas aeruginosa
E. faecalis ATCC 29212 = experiment: MIC against E. faecalis ATCC 29212; conditions: Enterococcus faecalis
S. aureus MMX 3035 cErmA = experiment: MIC against S. aureus MMX 3035 cErmA; conditions: Staphylococcus aureus, MMX3035CERMA
[5] = test system: E. coli MMX TolC parent strain; experiment: MIC against E. coli MMX TolC parent strain; conditions: Escherichia coli
C. difficile BAA 1805 = experiment: MIC against C. difficile BAA 1805; conditions: Clostridioides difficile, BAA1805
[6] = test system: E. faecalis MMX 847 Macrolide-Resistant; experiment: MIC against E. faecalis MMX 847 Macrolide-Resistant; conditions: Enterococcus faecalis
B. fragilis ATCC 25285 = experiment: MIC against B. fragilis ATCC 25285; conditions: Bacteroides fragilis, ATCC25285; B. fragilis ATCC 25285; read-out: MIC
[7] = test system: P. aeruginosa MMX 3476 Δmex; experiment: MIC against P. aeruginosa MMX 3476 Δmex; conditions: Pseudomonas aeruginosa
[8] = test system: S. pneumoniae MMX 3028 cErmB; experiment: MIC against S. pneumoniae MMX 3028 cErmB; conditions: Streptococcus pneumoniae, MMX3028CERMB
H. influenzae ATCC 49247 = experiment: MIC against H. influenzae ATCC 49247; conditions: Haemophilus influenzae, ATCC49247; H. influenzae ATCC 49247; read-out: MIC
E. coli ATCC 15922 = experiment: MIC against E. coli ATCC 15922; conditions: Escherichia coli, ATCC15922; E. coli ATCC 15922; read-out: MIC
[9] = test system: S. aureus Micromyx USA 300; experiment: MIC against S. aureus Micromyx USA 300; conditions: Staphylococcus aureus, USA300; S. aureus Micromyx USA 300; read-out: MIC
[10] = test system: E. coli MP-74 LptD mutant; experiment: MIC against E. coli MP-74 LptD mutant; conditions: Escherichia coli
[11] = test system: S. aureus MP-549 msr(a) USA 300; experiment: MIC against S. aureus MP-549 msr(a) USA 300; conditions: Staphylococcus aureus, USA300, S. aureus MP-549 msr(a) USA 300
[12] = S. pyogenes ATCC 19615, read-out: MIC
[13] = S. pneumoniae MMX 3028 cErmB, read-out: MIC
[14] = K. pneumoniae ATCC 10031, read-out: MIC
[15] = S. aureus MMX 3035 cErmA, read-out: MIC
[16] = E. faecalis MMX 847 MacRes, read-out: MIC

| Structure (SMILES) | MIC (E. coli ATCC 25922) [µg/mL] | MIC (P. aeruginosa ATCC 27853) [µg/mL] | MIC (E. coli MP-9 ΔTolC) [µg/mL] | MIC (S. pneumoniae ATCC 49619) [µg/mL] | MIC (S. pyogenes ATCC 19615; [12]) [µg/mL] | MIC [3] [µg/mL] | MIC (E. faecalis ATCC 29212; ATCC29212, read-out: MIC) [µg/mL] | MIC (H. influenzae ATCC 49247) [µg/mL] | MIC (E. coli ATCC 15922) [µg/mL] | MIC [8, 13] [µg/mL] | MIC (K. pneumoniae ATCC 10031; [14]) [µg/mL] | MIC (S. aureus MMX 3035 cErmA; [15]) [µg/mL] | other results |
| --- | --- | --- | --- | --- | --- | --- | --- | --- | --- | --- | --- | --- | --- |
| CSC1O[C@H]([C@H](NC(=O)[C@H]2NC[C@@H]3CN(CC(=O)O)CCO[C@H]32)[C@H](C)Cl)C(O)[C@@H](O)[C@H]1O (stereo partly drawn) [FSA-504063] | > 64 | > 64 | > 64 |  |  |  |  |  |  |  |  |  | MIC (K. pneumoniae ATCC 10031): > 64 µg/mL; MIC (S. aureus ATCC 29213; ATCC29213): > 64 µg/mL; MIC [1]: > 64 µg/mL |
| C=CC1=CCO[C@@H]2[C@H](CN[C@@H]2C(=O)N[C@H]([C@H](C)Cl)[C@H]2OC(SC)[C@H](O)[C@H](O)C2O)C1 (stereo partly drawn) [FSA-507041] | > 32 | > 32 |  | < 0.03 | 0.06 (≈ 0.13 µM) | < 0.03 | 2 (≈ 4.32 µM) |  |  |  |  |  | MIC (S. aureus BAA 977 iErmA): 0.5 µg/mL (≈ 1.08 µM); MIC [2]: > 32 µg/mL; MIC [4]: > 32 µg/mL; MIC (S. aureus MMX 3035 cErmA): > 32 µg/mL; MIC [5]: > 32 µg/mL; MIC (C. difficile BAA 1805; C. difficile BAA 1805, read-out: MIC): 0.5 µg/mL (≈ 1.08 µM); MIC [6]: > 32 µg/mL; MIC (B. fragilis ATCC 25285): 2 µg/mL (≈ 4.32 µM); MIC (S. aureus ATCC 29213; ATCC29213, S. aureus ATCC 29213, read-out: MIC): 0.5 µg/mL (≈ 1.08 µM); MIC [7]: > 32 µg/mL |
| CSC1O[C@H]([C@H](NC(=O)[C@H]2NC[C@H]3CC=CCO[C@H]32)[C@H](C)Cl)C(O)[C@@H](O)[C@H]1O (stereo partly drawn) [FSA-507051] | > 32 | > 32 |  | 1 (≈ 2.29 µM) |  | 1 (≈ 2.29 µM) |  | 6 (≈ 13.7 µM) |  |  |  |  | MIC [2]: > 32 µg/mL; MIC [8]: > 32 µg/mL; MIC (S. pyogenes ATCC 19615): 0.5 µg/mL (≈ 1.14 µM); MIC [4]: > 32 µg/mL; MIC (E. faecalis ATCC 29212; ATCC29212): > 32 µg/mL; MIC (S. aureus MMX 3035 cErmA): > 32 µg/mL; MIC [5]: > 32 µg/mL; MIC (C. difficile BAA 1805): > 32 µg/mL; MIC [6]: > 32 µg/mL; MIC [7]: > 32 µg/mL |
| CSC1O[C@H]([C@H](NC(=O)[C@H]2NC[C@@H]3C[C@@H](c4ccc(C(F)(F)F)cc4)CCO[C@H]32)[C@H](C)Cl)C(O)[C@@H](O)[C@H]1O (stereo partly drawn) [FSA-509019] |  |  |  |  |  |  |  | 4 (≈ 6.86 µM) | > 64 |  |  |  | MIC ([4]; P. aeruginosa MMX Mex parent strain, read-out: MIC): > 64 µg/mL; MIC [9]: 0.5 µg/mL (≈ 0.858 µM); MIC (P. aeruginosa ATCC 27853; P. aeruginosa ATCC 27853, read-out: MIC): > 64 µg/mL |
| CSC1O[C@H]([C@H](NC(=O)[C@H]2NC[C@@H]3C[C@@H](CCc4cccc(F)c4)CCO[C@H]32)[C@H](C)Cl)C(O)[C@@H](O)[C@H]1O (stereo partly drawn) [FSA-510022] |  |  | 4 (≈ 7.13 µM) | ≤ 0.06 | ≤ 0.06 | ≤ 0.06 |  | 1 (≈ 1.78 µM) |  | 4 (≈ 7.13 µM) | 2 (≈ 3.56 µM) | 2 (≈ 3.56 µM) | MIC ([2]; S. pyogenes MMX 946 MacRes, read-out: MIC): 0.5 µg/mL (≈ 0.891 µM); MIC [6, 16]: 2 µg/mL (≈ 3.56 µM); MIC [10]: 4 µg/mL (≈ 7.13 µM) |
| CSC1O[C@H]([C@H](NC(=O)[C@H]2NC[C@@H]3C[C@@H](c4cccc(F)c4)CCO[C@H]32)[C@H](C)Cl)C(O)[C@@H](O)[C@H]1O (stereo partly drawn) [FSA-511077] |  |  | 4 (≈ 7.5 µM) | ≤ 0.06 | ≤ 0.06 | ≤ 0.06 | 0.5 (≈ 0.938 µM) |  | > 64 | 8 (≈ 15 µM) | 8 (≈ 15 µM) | > 64 | MIC [11]: 0.23 µg/mL (≈ 0.431 µM) |
| CSC1O[C@H]([C@H](NC(=O)[C@H]2NC[C@@H]3C[C@@H](c4ccc(F)cc4F)CCO[C@H]32)[C@H](C)Cl)C(O)[C@@H](O)[C@H]1O (stereo partly drawn) [FSA-511078] |  |  | 2 (≈ 3.63 µM) | ≤ 0.06 | ≤ 0.06 | ≤ 0.06 |  |  | > 64 | 4 (≈ 7.26 µM) | 8 (≈ 14.5 µM) | > 64 | MIC [10]: 8 µg/mL (≈ 14.5 µM) |
| CSC1O[C@H]([C@H](NC(=O)[C@H]2NC[C@@H]3C[C@@H](c4cc(F)cc(F)c4)CCO[C@H]32)[C@H](C)Cl)C(O)[C@@H](O)[C@H]1O (stereo partly drawn) [FSA-511080] |  |  | 4 (≈ 7.26 µM) | ≤ 0.06 | ≤ 0.06 | ≤ 0.06 | 0.5 (≈ 0.907 µM) |  | > 64 | 8 (≈ 14.5 µM) |  | > 64 | MIC [6, 16]: > 64 µg/mL |
